The values that follow come from patent US20080113962A1, “Condensed Tricyclic Benzimidazoles For the Treatment of Gastrointestinal Disorders” (Aitana Pharma AG, priority 2004, published 2008).

In data set [1] the test system is pentagastrin-stimulated acid secretion of the perfused rat stomach. As to the kind of experiment: Secretion-inhibiting action on the perfused rat stomach (pentagastrin-stimulated acid secretion). It is filed as in vivo. Conditions: anesthetized CD rat, dose 3.0 μmol/kg i.d. (intraduodenal). From the text: Testing of the Secretion-Inhibiting Action on the Perfused Rat Stomach
In Table A which follows, the influence of the compounds of the formula 1 according to the invention on the pentagastrin-stimulated acid secretion of the perfused rat stomach after intraduodenal administration in vivo is shown.
The abdomen of anesthetized rats (CD rat, female, 200-250 g; 1.5 g/kg i.m. urethane) was opened after tracheotomy by a median upper abdominal incision and a PVC catheter was fixed transorally in the esophagus and another via the pylorus such that the ends of the tubes just projected into the gastric lumen. The catheter leading from the pylorus led outward into the right abdominal wall through a side opening.
After thorough rinsing (about 50-100 ml), warm (37° C.) physiological NaCl solution was continuously passed through the stomach (0.5 ml/min, pH 6.8-6.9; Braun-Unita I). The pH (pH meter 632, glass electrode EA 147; φ=5 mm, Metrohm) and, by titration with a freshly prepared 0.01N NaOH solution to pH 7 (Dosimat 665 Metrohm), the secreted HCl were determined in the effluent in each case collected at an interval of 15 minutes.
The gastric secretion was stimulated by continuous infusion of […] (=1.65 ml/h) of i.v. pentagastrin (left femoral vein) about 30 min after the end of the operation (i.e. after determination of 2 preliminary fractions). […]

What is called melting point is the temperature, or range, at which the solid turns liquid. Molecule `Cc1nc2c3c(ccc2n1C)[C@H](O)C[C@H](c1ccccc1)O3` (relative stereo) [Example 1, cis-2,3-Dimethyl-8-phenyl-3,6,7,8-tetrahydro-chromeno[7,8-d]imidazol-6-ol] returned a melting point of 228 to 229 °C.

`COCCOC1CC(c2ccccc2)Oc2c1ccc1c2nc(C)n1C` (stereo not shown) [Example 2, 6-(2-Methoxy-ethoxy)-2,3-dimethyl-8-phenyl-3,6,7,8-tetrahydro-chromeno[7,8-d]imidazole] registered a melting point of 148 to 149 °C. The “Inhibition of acid secretion” value in data set [1] is on record as greater than 50%.

Turning to `CCOC1CC(c2ccccc2)Oc2c1ccc1c2nc(C)n1C` (stereo not shown) [Example 3, 6-(2-Ethoxy)-2,3-dimethyl-8-phenyl-3,6,7,8-tetrahydro-chromeno[7,8-d]imidazole], the melting point was in the range of 177 to 178 °C.
